Measured values from patent US20040039052A1, “Urinary incontinence therapy” (priority 1997, published 2004).

Key:
[1] = test system: patients having bladder hyperactivity; assay: 14-patient study: single intravesical RTX instillation; fill cystometry (MCC), urination diary; assay type: in vivo, human; settings: for Bladder Capacity, % Change / Bladder Capacity, Change from Pre-RTX: Bladder Capacity <200 mL; for Bladder Capacity, % Change / Bladder Capacity, Change from Pre-RTX / Bladder Capacity: n 7; for Mean Incontinent Episodes/day, % Change / Mean Incontinent Episodes/day, Difference from Pre-RTX / Mean Incontinent Episodes/day: n = 8; for Mean incontinent episodes: Pre-RTX 2.1; for Mean bladder capacity: Pre-RTX 182; for Bladder Capacity: patients with Bladder Capacity <200 mL, Pre-RTX 86; for Mean Incontinent Episodes/day: Pre-RTX 3.6
Source text: Clinical studies reported herein include the following: observations from the patient's urination diary and their overall assessment of bladder function, maximum cystometric capacity of the bladder, and daily urinary frequency and incontinence episodes. […] Useful and effective treatment is that which alleviates any of the symptoms associated with neurogenic urinary dysfunction.
Patients chosen for study were of either sex, between the ages of 30 and 75, and weighing between 60 kg and 110 kg. Patients were selected having bladder hyperactivity associated with spinal cord injury, multiple sclerosis, peripheral neuropathy, muscular dystrophy or bladder instability. Pregnant women were excluded from the study as were those exposed to any other investigational drug within 30 days of baseline, those exposed to drugs affecting bladder performance or detrusor function within 10 days of baseline, those with known chemical addiction, those with seizure activity or major psychiatric disorders, and those with clinically significant cardiovascular, renal or hepatic disease, upper respiratory disease, malignant disease or clinically significant abnormal clinical laboratory values. Patients taking anti-cholinergic drugs were generally excluded except in a rare instance at the discretion of the investigator, in which case the dosage of anti-cholinergic drug was not changed during the study. Patients previously treated with capsaicin were first monitored to insure a return to baseline parameters in the absence of capsaicin. Preliminary studies to determine RTX dosage efficacy were performed with patients who had previous experience with intravesical capsaicin administration for treatment of bladder hyperactivity. Once a dose range for the study was determined, both previously capsaicin-treated and -untreated patients were employed.
The molecular weight of RTX is 628.72 for the clinical studies described herein. A 10 μM stock solution, 6.3 μg/mL was prepared by dissolving 6.32 mg of 99.5% pure RTX in 1000 mL absolute ethanol. Solutions for therapeutic use were diluted from the ethanolic stock solution into sterile normal saline (0.9% w/v NaCl) or a saline-ethanol mixture such that the final solution was 10% (v/v) ethanol. Therapeutic efficacy was tested for RTX concentrations of 1 μM, 0.1 μM and 0.05 μM. […] Prior to administration, RTX solutions were sterilized by filtration.
Fill cystometry: A two-way 8 F urethral catheter was inserted in the bladder under clean conditions. The residual urine was emptied. Infusion of saline at body temperature was started at a constant speed of […]. Patients were asked to indicate the moment of first desire to void (FDV) and any other sensation. The infusion was stopped at compulsive desire to void and the infused volume taken as the maximal cystometric capacity (MCC). Bladder pressure at which MCC occurs was also recorded. A prophylactic antibiotic (ciprofloxacin, 500 mg every 8 hours) was given during the next 48 hours.
Ice-Water test: The patient was clean catheterized with a two-way urethral catheter. A volume of 50 ml of iced saline (or half of the MCC found in cystometry) was put in a catheter-irrigating syringe and injected into the bladder during a period of 20 seconds. Bladder pressure was constantly measured. The test was considered positive (abnormal) if an involuntary bladder contraction was recorded during the next 60 seconds.
RTX Instillation: An 18 or 20 F three-way Foley catheter was used. The balloon was inflated to 20 ml and maintained gently pulled against the bladder neck to reduce leakage of RTX.
Up to 100 mL RTX solution was introduced into an emptied bladder, retained in the bladder for 30 minutes, then the bladder was emptied and rinsed with normal saline. Prior to treatment, baseline measurements of MCC, micturition frequency and ice water test response made. […]
Patients 1, 2, 6, 7, 8 and 13 received 0.05 μM RTX. The rest received 0.1 μM RTX. […]

bladder afferents = settings: rats; intravesicular 10-100 μmol; cited from earlier work
[2] = day 14, Frequency ≧ 10/day, n = 7
[3] = day 14, Incontinence > episode/day
[4] = day 14, intent-to-treat, n = 14
[5] = day 30, Frequency ≧ 10/day, n = 7
[6] = day 30, Incontinence > episode/day
[7] = day 30, intent-to-treat, n = 14
[8] = day 60, Frequency ≧ 10/day, n = 7
[9] = day 60, Incontinence > episode/day
[10] = day 60, intent-to-treat, n = 14
[11] = day 90, Frequency ≧ 10/day, n = 7
[12] = day 90, Incontinence > episode/day
[13] = day 90, intent-to-treat, n = 14
[14] = patients able to do spontaneous micturitions

C=C(C)[C@]12C[C@@H](C)[C@@]34O[C@](Cc5ccccc5)(O[C@@H]1[C@@H]3C=C(COC(=O)Cc1ccc(O)c(OC)c1)C[C@]1(O)C(=O)C(C)=C[C@@H]41)O2 [RTX, resiniferatoxin]
patients with meaningful effects, decreases in frequency, urge or wetness ([1]; 14-patient study): 71% | MCC ([1]; Patient #10 (spinal cord injury), 100 μM RTX instillation, day 14, Baseline MCC 80 ml): 500 mL | leaks on the worst day ([1]; Patient #10, 100 μM RTX instillation, before treatment incontinence episodes more than 7 times per day): 2-3 times per day | incontinence episodes, Case #11 ([1]; after RTX (0.1 μM), no improvement during placebo): substantially decreased incontinence episodes | symptoms evoked by RTX instillation ([1]; all patients, noted by a few patients during the first minutes of the treatment): itching or mild discomfort were the only symptoms evoked by RTX | incontinence episodes, Case #7 ([1]; between days 14 and 30 post-treatment, 0.05 μM, prior: at least once between catheterizations): only one incontinence episode | Bladder Capacity, % Change ([1]; day 14): +224% | Bladder Capacity, Change from Pre-RTX ([1]; day 14): +193 mLs | Mean Frequency/day, % Change [1, 2]: −34% | Mean Frequency/day, Change from Pre-RTX [1, 2]: -5.3 day⁻¹ | Mean Incontinent Episodes/day, % Change [1, 3]: −44% | Mean Incontinent Episodes/day, Difference from Pre-RTX [1, 3]: -1.6 day⁻¹ | Mean Frequency/day ([1]; day 14, intent-to-treat analysis, n = 14, Pre-RTX 9.1): 6.9 day⁻¹ | Mean Frequency/day, Difference from pre-RTX [1, 4]: -2.2 day⁻¹ | Mean bladder capacity, Difference from pre-RTX [1, 4]: 95 mL | Mean incontinent episodes, Difference from pre-RTX [1, 4]: −1.0 | Mean incontinent episodes [1, 4]: 1.0 | Mean bladder capacity [1, 4]: 277 mL | Bladder Capacity ([1]; day 14, single instillation 0.05 or 0.1 μM): 279 mLs | Mean Frequency/day ([1]; day 14, patients with Frequency ≧ 10/day, n = 7, Pre-RTX 15.7): 10.4 day⁻¹ | Mean Incontinent Episodes/day ([1]; day 14, patients with Incontinence > episode/day): 2.0 day⁻¹ | Bladder Capacity, % Change ([1]; day 30): +156% | Bladder Capacity, Change from Pre-RTX ([1]; day 30): +134 mLs | Mean Frequency/day, % Change [1, 5]: −28% | Mean Frequency/day, Change from Pre-RTX [1, 5]: -4.4 day⁻¹ | Mean Frequency/day ([1]; day 30, Frequency ≧ 10/day, n = 7, Pre-RTX 15.7): 11.3 day⁻¹ | Mean Incontinent Episodes/day, % Change [1, 6]: −64% | Mean Incontinent Episodes/day, Difference from Pre-RTX [1, 6]: -2.3 day⁻¹ | Mean Incontinent Episodes/day [1, 6]: 1.3 day⁻¹ | Mean Frequency/day, Difference from pre-RTX [1, 7]: -1.6 day⁻¹ | Mean bladder capacity, Difference from pre-RTX [1, 7]: 64 mL | Mean incontinent episodes, Difference from pre-RTX [1, 7]: −1.4 | Mean incontinent episodes [1, 7]: 0.7 | Mean Frequency/day ([1]; day 30, intent-to-treat, n = 14, Pre-RTX 9.1): 7.5 day⁻¹ | Mean bladder capacity [1, 7]: 247 mL | Bladder Capacity ([1]; day 30): 220 mLs | Bladder Capacity, % Change ([1]; day 60): +159% | Bladder Capacity, Change from Pre-RTX ([1]; day 60): +137 mLs | Mean Frequency/day, % Change [1, 8]: −34% | Mean Frequency/day, Change from Pre-RTX [1, 8]: -5.3 day⁻¹ | Mean Frequency/day ([1]; day 60, Frequency ≧ 10/day, n = 7, Pre-RTX 15.7): 10.4 day⁻¹ | Mean Incontinent Episodes/day, % Change [1, 9]: −67% | Mean Incontinent Episodes/day, Difference from Pre-RTX [1, 9]: -2.4 day⁻¹ | Mean Incontinent Episodes/day [1, 9]: 1.2 day⁻¹ | Mean Frequency/day, Difference from pre-RTX [1, 10]: -2.1 day⁻¹ | Mean bladder capacity, Difference from pre-RTX [1, 10]: 45 mL | Mean incontinent episodes, Difference from pre-RTX [1, 10]: −1.7 | Mean incontinent episodes [1, 10]: 0.4 | Mean Frequency/day ([1]; day 60, intent-to-treat, n = 14, Pre-RTX 9.1): 7.0 day⁻¹ | Mean bladder capacity [1, 10]: 228 mL | Bladder Capacity ([1]; day 60): 223 mLs | Bladder Capacity, Change from Pre-RTX ([1]; day 90): +191 mLs | Mean Frequency/day, % Change [1, 11]: −31% | Mean Frequency/day, Change from Pre-RTX [1, 11]: -4.9 day⁻¹ | Mean Frequency/day ([1]; day 90, Frequency ≧ 10/day, n = 7, Pre-RTX 15.7): 10.8 day⁻¹ | Mean Incontinent Episodes/day, % Change [1, 12]: −58% | Mean Incontinent Episodes/day, Difference from Pre-RTX [1, 12]: -2.1 day⁻¹ | Mean Incontinent Episodes/day [1, 12]: 1.5 day⁻¹ | Mean Frequency/day, Difference from pre-RTX [1, 13]: -2.6 day⁻¹ | Mean bladder capacity, Difference from pre-RTX [1, 13]: 148 mL | Mean incontinent episodes, Difference from pre-RTX [1, 13]: −1.5 | Mean incontinent episodes [1, 13]: 0.6 | Mean Frequency/day ([1]; day 90, intent-to-treat, n = 14, Pre-RTX 9.1): 6.2 day⁻¹ | Mean bladder capacity [1, 13]: 330 mL | Bladder Capacity ([1]; day 90): 277 mLs | positive benefit on incontinent episodes ([1]; eight evaluable patients with more than one incontinent episode/day): only one did not show a positive benefit | patients in whom bladder capacity (MCC) increased ([1]; out of the 14 patients): 11 | duration of decreased frequency post-treatment [1, 14]: up to 60 days | improvement in MCC [1, 14]: All patients in the group but one (#1) showed clear improvement (increase) in MCC | reported improvement after RTX administration ([1]; patients requiring self-catheterization or supra-pubic maneuvers (#4, 5, 7, 8 and 11)): all but one (#4) reported improvement | full continence after RTX instillation ([1]; patients who were entirely incontinent (#3, 4, 6, 9, 12, 13 and 14)): five (#3, 6 and 9, 12 and 13) achieved full continence | duration of effect of a single instillation ([1]; single instillation): up to 6 months | desensitization of bladder afferents (bladder afferents): long-lasting desensitization of bladder afferents
